Publication PMC12413448, “Atomic resolution structures of the methane-activating enzyme in anaerobic methanotrophy reveal extensive post-translational modifications” (Nature Communications, 2025)

What was measured:
[1] = target: T1, MCR from ANME-2d^V (Methyl-Coenzyme M Reductase) (Candidatus Methanoperedens sp., UniProt Z9LNO2W1Q3+Z9MSE7NHP1+Z9ZZ61DSW2); experiment: X-ray crystal structure, […] Å; conditions: as isolated; mixture of ligands modelled in active site
T1 sequence (Z9MSE7NHP1 1-566): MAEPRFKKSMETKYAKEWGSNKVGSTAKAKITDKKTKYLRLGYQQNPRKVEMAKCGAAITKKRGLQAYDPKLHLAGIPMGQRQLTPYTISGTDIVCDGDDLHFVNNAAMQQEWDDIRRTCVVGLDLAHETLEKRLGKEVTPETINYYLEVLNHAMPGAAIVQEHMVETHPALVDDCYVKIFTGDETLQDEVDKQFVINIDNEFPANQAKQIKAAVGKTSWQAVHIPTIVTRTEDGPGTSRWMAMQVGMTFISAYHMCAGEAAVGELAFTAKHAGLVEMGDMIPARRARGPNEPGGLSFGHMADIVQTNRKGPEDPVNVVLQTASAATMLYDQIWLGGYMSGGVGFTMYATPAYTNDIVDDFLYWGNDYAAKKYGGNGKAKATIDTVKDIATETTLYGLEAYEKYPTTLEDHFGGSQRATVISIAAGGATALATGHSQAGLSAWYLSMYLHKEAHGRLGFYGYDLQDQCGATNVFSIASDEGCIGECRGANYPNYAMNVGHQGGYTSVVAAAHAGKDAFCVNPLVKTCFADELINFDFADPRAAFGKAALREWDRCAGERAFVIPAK
T1 sequence (Z9ZZ61DSW2 1-434): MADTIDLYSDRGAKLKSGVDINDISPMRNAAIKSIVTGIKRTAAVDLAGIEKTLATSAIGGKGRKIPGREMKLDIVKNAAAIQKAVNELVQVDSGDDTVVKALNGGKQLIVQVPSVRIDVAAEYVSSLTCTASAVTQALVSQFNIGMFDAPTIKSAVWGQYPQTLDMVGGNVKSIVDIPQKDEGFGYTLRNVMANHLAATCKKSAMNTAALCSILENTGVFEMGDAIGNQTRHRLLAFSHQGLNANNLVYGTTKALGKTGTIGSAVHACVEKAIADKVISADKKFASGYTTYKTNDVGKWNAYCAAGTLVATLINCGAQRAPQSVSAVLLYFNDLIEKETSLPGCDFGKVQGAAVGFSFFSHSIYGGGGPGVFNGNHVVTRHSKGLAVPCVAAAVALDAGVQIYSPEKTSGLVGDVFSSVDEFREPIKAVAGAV
T1 sequence (Z9LNO2W1Q3 1-249): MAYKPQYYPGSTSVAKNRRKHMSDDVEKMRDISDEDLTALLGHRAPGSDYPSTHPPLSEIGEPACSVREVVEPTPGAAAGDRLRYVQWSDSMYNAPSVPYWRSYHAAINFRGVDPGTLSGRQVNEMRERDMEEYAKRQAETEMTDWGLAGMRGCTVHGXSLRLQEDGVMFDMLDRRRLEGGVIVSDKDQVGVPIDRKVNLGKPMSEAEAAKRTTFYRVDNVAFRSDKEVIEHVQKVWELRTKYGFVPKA

[2] = target: T2, MCR from ANME-2d^O (Methyl-Coenzyme M Reductase) (Candidatus Methanoperedens sp. BLZ2, UniProt Z9I9A7LEW2+Z9NDC8PKK5+Z9T835AYK6); experiment: X-ray crystal structure, […] Å; type: binding; conditions: as isolated, trapped in active site; reduced thiol
T2 construct: native purification from bioreactor enrichment; (alpha beta gamma)2 dimer of heterotrimers; seven native PTMs including 3(S)-methylhistidine 159 on gamma; full length
T2 sequence (Z9T835AYK6 1-562): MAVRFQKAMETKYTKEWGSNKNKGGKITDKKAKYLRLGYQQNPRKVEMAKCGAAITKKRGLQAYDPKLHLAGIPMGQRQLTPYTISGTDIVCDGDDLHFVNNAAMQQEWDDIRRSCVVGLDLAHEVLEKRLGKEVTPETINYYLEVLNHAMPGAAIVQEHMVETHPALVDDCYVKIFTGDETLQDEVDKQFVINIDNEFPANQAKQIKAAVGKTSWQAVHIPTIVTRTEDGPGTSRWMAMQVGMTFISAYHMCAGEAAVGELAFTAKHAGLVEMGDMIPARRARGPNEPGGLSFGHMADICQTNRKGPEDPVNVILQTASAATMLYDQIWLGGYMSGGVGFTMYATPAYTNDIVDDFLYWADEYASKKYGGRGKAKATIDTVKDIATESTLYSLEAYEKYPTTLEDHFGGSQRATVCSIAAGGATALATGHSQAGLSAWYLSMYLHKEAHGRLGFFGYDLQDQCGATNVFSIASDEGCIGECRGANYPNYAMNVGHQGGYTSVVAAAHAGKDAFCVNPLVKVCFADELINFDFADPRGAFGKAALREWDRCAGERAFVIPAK
T2 sequence (Z9NDC8PKK5 1-434): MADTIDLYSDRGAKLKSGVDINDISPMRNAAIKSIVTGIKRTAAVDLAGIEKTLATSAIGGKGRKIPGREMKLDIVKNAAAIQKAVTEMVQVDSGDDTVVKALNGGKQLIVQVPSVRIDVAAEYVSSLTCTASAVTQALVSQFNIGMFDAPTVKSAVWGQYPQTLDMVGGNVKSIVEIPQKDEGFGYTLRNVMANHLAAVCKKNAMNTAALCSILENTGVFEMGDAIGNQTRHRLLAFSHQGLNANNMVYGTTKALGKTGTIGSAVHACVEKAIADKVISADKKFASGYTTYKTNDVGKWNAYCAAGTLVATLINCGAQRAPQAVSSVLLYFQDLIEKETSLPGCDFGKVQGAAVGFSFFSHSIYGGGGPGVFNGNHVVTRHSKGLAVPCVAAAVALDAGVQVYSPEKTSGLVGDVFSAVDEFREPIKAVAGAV
T2 sequence (Z9I9A7LEW2 1-249): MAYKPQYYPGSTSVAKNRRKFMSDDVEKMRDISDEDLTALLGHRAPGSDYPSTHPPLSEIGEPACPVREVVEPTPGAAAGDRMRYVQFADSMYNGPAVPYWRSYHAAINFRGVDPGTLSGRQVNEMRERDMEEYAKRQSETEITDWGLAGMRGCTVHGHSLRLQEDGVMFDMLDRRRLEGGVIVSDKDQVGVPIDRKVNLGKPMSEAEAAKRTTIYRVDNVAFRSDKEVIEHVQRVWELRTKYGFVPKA

Row | Structure (SMILES) | X-ray crystal structure, 0.98 Å [1] | X-ray crystal structure, 0.98 Å [2]
1 | C[C@@H](OP(=O)(O)O)[C@H](NC(=O)CCCCCCSSCCS(=O)(=O)O)C(=O)O [heterodisulfide] | optimal when the model included CoM-SH, CoB-SH, the heterodisulfide, and methyl-CoM | 
2 | C[C@@H](OP(=O)(O)O)[C@H](NC(=O)CCCCCCS)C(=O)O [CoB-SH] |  | MCRs from ANME-2c and ANME-2d^O contain reduced coenzymes trapped in the active site
3 | O=S(=O)(O)CCS [CoM-SH] | optimal when the model included CoM-SH, CoB-SH, the heterodisulfide, and methyl-CoM | MCRs from ANME-2c and ANME-2d^O contain reduced coenzymes trapped in the active site
